Reference: the supplement of paper PMC4862054
“And” between values parts separate entries of the source, which are not always exact repeats. Equal entries are not always repeated.

Experiments:
Assay in all cases: normalised viability (% of control), CellTiter-Blue; higher = more viable cells (about 100 = DMSO control)
Conditions in all cases: incubation time: 72 h
[1] = tested on: MDA-MB-468
Protocol: (§1)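 DSRT, CellTiter-Blue viability, 72 h incubation. Signal is normalised to DMSO and benzethonium chloride controls. Value is the normalised response at dose 3.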

[2] = tested on: BT-549
Protocol: as §1

[3] = tested on: Hs578T
Protocol: as §1

[4] = tested on: HCC1599
Protocol: as §1

[5] = tested on: BT-474
Protocol: as §1

[6] = tested on: MDA-MB-453
Protocol: as §1

[7] = tested on: CAL-51
Protocol: as §1

[8] = tested on: HCC1143
Protocol: as §1

[9] = tested on: MDA-MB-231
Protocol: as §1

[10] = tested on: MDA-MB-436
Protocol: as §1

[11] = tested on: HDQ-P1
Protocol: as §1

[12] = tested on: CAL-85-1
Protocol: as §1

[13] = tested on: CAL-120
Protocol: as §1

[14] = tested on: MFM-223
Protocol: as §1

[15] = tested on: SK-BR-3
Protocol: as §1

[16] = tested on: DU-4475
Protocol: as §1

[17] = tested on: HCC1937
Protocol: as §1

[18] = tested on: CAL-148
Protocol: as §1

Structure (SMILES): CC(=O)c1c(C)c2cnc(Nc3ccc(N4CCNCC4)cn3)nc2n(C2CCCC2)c1=O
- normalised viability ([1]; 100 nM): 105%
- normalised viability ([2]; 100 nM): 108%
- normalised viability ([3]; 100 nM): 66.3%
- normalised viability ([4]; 100 nM): 88.2%
- normalised viability ([5]; 100 nM): 95.7%
- normalised viability ([6]; 10 nM): 104%
- normalised viability ([7]; 10 nM): 107%
- normalised viability ([8]; 100 nM): 82.3%
- normalised viability ([9]; 100 nM): 88.5%
- normalised viability ([10]; 100 nM): 111%
- normalised viability ([11]; 10 nM): 108%
- normalised viability ([12]; 10 nM): 102%
- normalised viability ([13]; 100 nM): 73.8%
- normalised viability ([14]; 100 nM): 88.1%
- normalised viability ([15]; 100 nM): 78%
- normalised viability ([16]; 10 nM): 107%
- normalised viability ([17]; 100 nM): 97.2%
- normalised viability ([18]; 10 nM): 91.3%

Structure (SMILES): Cn1cnc2c(F)c(Nc3ccc(Br)cc3Cl)c(C(=O)NOCCO)cc21 [Selumetinib]
- normalised viability ([1]; 100 nM): 92.5%
- normalised viability ([2]; 100 nM): 110%
- normalised viability ([3]; 100 nM): 68.4%
- normalised viability ([4]; 100 nM): 96.6%
- normalised viability ([5]; 100 nM): 94.5%
- normalised viability ([6]; 10 nM): 108%
- normalised viability ([7]; 10 nM): 113%
- normalised viability ([8]; 100 nM): 63.9%
- normalised viability ([9]; 100 nM): 61.5%
- normalised viability ([10]; 100 nM): 123%
- normalised viability ([11]; 10 nM): 116%
- normalised viability ([12]; 10 nM): 98.6%
- normalised viability ([13]; 100 nM): 82.8%
- normalised viability ([14]; 100 nM): 87.6%
- normalised viability ([15]; 100 nM): 65.7%
- normalised viability ([16]; 10 nM): 93.8%
- normalised viability ([17]; 100 nM): 97.9%
- normalised viability ([18]; 10 nM): 91.6%

Structure (SMILES): CC[C@@H]1C(=O)OC[C@@H]1Cc1cncn1C [Pilocarpine]
- normalised viability ([1]; 400 nM): 99.6%
- normalised viability ([2]; 400 nM): 111%
- normalised viability ([3]; 400 nM): 110%
- normalised viability ([4]; 400 nM): 99.6%
- normalised viability ([5]; 400 nM): 116%
- normalised viability ([6]; 40 nM): 102%
- normalised viability ([7]; 40 nM): 102%
- normalised viability ([8]; 400 nM): 90.1%
- normalised viability ([9]; 400 nM): 93.3%
- normalised viability ([10]; 400 nM): 105%
- normalised viability ([11]; 40 nM): 108%
- normalised viability ([12]; 40 nM): 98%
- normalised viability ([13]; 400 nM): 107%
- normalised viability ([14]; 400 nM): 92.8%
- normalised viability ([15]; 400 nM): 103%
- normalised viability ([16]; 40 nM): 108%
- normalised viability ([17]; 400 nM): 95.1%
- normalised viability ([18]; 40 nM): 97.4%

Structure (SMILES): CC1(C)CNc2cc(NC(=O)c3cccnc3NCc3ccncc3)ccc21 [Motesanib]
- normalised viability ([1]; 100 nM): 113%
- normalised viability ([2]; 100 nM): 88.1%
- normalised viability ([3]; 100 nM): 90.8%
- normalised viability ([4]; 100 nM): 101%
- normalised viability ([5]; 100 nM): 87.7%
- normalised viability ([6]; 10 nM): 82.7%
- normalised viability ([7]; 10 nM): 111%
- normalised viability ([8]; 100 nM): 79.1%
- normalised viability ([9]; 100 nM): 79.2%
- normalised viability ([10]; 100 nM): 79.7%
- normalised viability ([11]; 10 nM): 88.1%
- normalised viability ([12]; 10 nM): 91.4%
- normalised viability ([13]; 100 nM): 71.9%
- normalised viability ([14]; 100 nM): 80.2%
- normalised viability ([15]; 100 nM): 79.3%
- normalised viability ([16]; 10 nM): 90.4%
- normalised viability ([17]; 100 nM): 90.5%
- normalised viability ([18]; 10 nM): 82.5%

Structure (SMILES): CC(=O)O[C@@]12CO[C@@H]1C[C@H](O)[C@@]1(C)C(=O)[C@H](O)C3=C(C)[C@@H](OC(=O)[C@H](O)[C@@H](NC(=O)OC(C)(C)C)c4ccccc4)C[C@@](O)([C@@H](OC(=O)c4ccccc4)[C@H]21)C3(C)C [Docetaxel]
- normalised viability ([1]; 10 nM): 50% and 41.6%
- normalised viability ([2]; 10 nM): 28% and 25.4%
- normalised viability ([3]; 10 nM): 13.1% and 18.8%
- normalised viability ([4]; 10 nM): 110% and 108%
- normalised viability ([5]; 10 nM): 49.9% and 46.2%
- normalised viability ([6]; 1 nM): 85.9% and 66.5%
- normalised viability ([7]; 1 nM): 101% and 90.4%
- normalised viability ([8]; 10 nM): 51.7% and 35.2%
- normalised viability ([9]; 10 nM): 34.8% and 32.6%
- normalised viability ([10]; 10 nM): 51.1% and 52%
- normalised viability ([11]; 1 nM): 78.7% and 71.2%
- normalised viability ([12]; 1 nM): 88.3% and 86.5%
- normalised viability ([13]; 10 nM): 32.1% and 30.1%
- normalised viability ([14]; 10 nM): 59.6% and 53.8%
- normalised viability ([15]; 10 nM): 6.91% and 8.46%
- normalised viability ([16]; 1 nM): 86% and 95.2%
- normalised viability ([17]; 10 nM): 32.2% and 27.2%
- normalised viability ([18]; 1 nM): 99.2% and 81.9%

Structure (SMILES): CC(C)(C)c1cnc(CSc2cnc(NC(=O)C3CCNCC3)s2)o1 [SNS-032]
- normalised viability ([1]; 100 nM): 96.9%
- normalised viability ([2]; 100 nM): 91.7%
- normalised viability ([3]; 100 nM): 52.8%
- normalised viability ([4]; 100 nM): 78.6%
- normalised viability ([5]; 100 nM): 85.5%
- normalised viability ([6]; 10 nM): 99.8%
- normalised viability ([7]; 10 nM): 117%
- normalised viability ([8]; 100 nM): 76.5%
- normalised viability ([9]; 100 nM): 69.5%
- normalised viability ([10]; 100 nM): 104%
- normalised viability ([11]; 10 nM): 132%
- normalised viability ([12]; 10 nM): 96.2%
- normalised viability ([13]; 100 nM): 69%
- normalised viability ([14]; 100 nM): 82.7%
- normalised viability ([15]; 100 nM): 62.1%
- normalised viability ([16]; 10 nM): 101%
- normalised viability ([17]; 100 nM): 53.2%
- normalised viability ([18]; 10 nM): 89.1%

Structure (SMILES): Nc1ncn([C@@H]2O[C@H](CO)[C@@H](O)[C@H]2O)c(=O)n1 [Azacitidine]
- normalised viability ([1]; 100 nM): 103%
- normalised viability ([2]; 100 nM): 106%
- normalised viability ([3]; 100 nM): 91.7%
- normalised viability ([4]; 100 nM): 97%
- normalised viability ([5]; 100 nM): 107%
- normalised viability ([6]; 10 nM): 101%
- normalised viability ([7]; 10 nM): 108%
- normalised viability ([8]; 100 nM): 91.5%
- normalised viability ([9]; 100 nM): 84.5%
- normalised viability ([10]; 100 nM): 89.3%
- normalised viability ([11]; 10 nM): 108%
- normalised viability ([12]; 10 nM): 95.2%
- normalised viability ([13]; 100 nM): 90.9%
- normalised viability ([14]; 100 nM): 94.7%
- normalised viability ([15]; 100 nM): 89.3%
- normalised viability ([16]; 10 nM): 118%
- normalised viability ([17]; 100 nM): 98.3%
- normalised viability ([18]; 10 nM): 82.7%

Structure (SMILES): COc1cc(F)c(F)c(Nc2ccc(I)cc2F)c1NS(=O)(=O)C1(C[C@H](O)CO)CC1 [RDEA119]
- normalised viability ([1]; 100 nM): 86.1%
- normalised viability ([2]; 100 nM): 77.4%
- normalised viability ([3]; 100 nM): 76%
- normalised viability ([4]; 100 nM): 87.4%
- normalised viability ([5]; 100 nM): 98.7%
- normalised viability ([6]; 10 nM): 78.3%
- normalised viability ([7]; 10 nM): 91.2%
- normalised viability ([8]; 100 nM): 90.8%
- normalised viability ([9]; 100 nM): 45%
- normalised viability ([10]; 100 nM): 90.4%
- normalised viability ([11]; 10 nM): 74.8%
- normalised viability ([12]; 10 nM): 97.3%
- normalised viability ([13]; 100 nM): 93.7%
- normalised viability ([14]; 100 nM): 85%
- normalised viability ([15]; 100 nM): 90.7%
- normalised viability ([16]; 10 nM): 86%
- normalised viability ([17]; 100 nM): 87.7%
- normalised viability ([18]; 10 nM): 93.6%

Structure (SMILES): Cc1sc2c(c1C)C(c1ccc(Cl)cc1)=N[C@@H](CC(=O)OC(C)(C)C)c1nnc(C)n1-2 [(+)JQ1]
- normalised viability ([1]; 100 nM): 108%
- normalised viability ([2]; 100 nM): 80.9%
- normalised viability ([3]; 100 nM): 72.6%
- normalised viability ([4]; 100 nM): 100%
- normalised viability ([5]; 100 nM): 110%
- normalised viability ([6]; 10 nM): 108%
- normalised viability ([7]; 10 nM): 98.5%
- normalised viability ([8]; 100 nM): 92.2%
- normalised viability ([9]; 100 nM): 95.9%
- normalised viability ([10]; 100 nM): 136%
- normalised viability ([11]; 10 nM): 98.4%
- normalised viability ([12]; 10 nM): 101%
- normalised viability ([13]; 100 nM): 79.1%
- normalised viability ([14]; 100 nM): 85.1%
- normalised viability ([15]; 100 nM): 98.3%
- normalised viability ([16]; 10 nM): 88.3%
- normalised viability ([17]; 100 nM): 98.4%
- normalised viability ([18]; 10 nM): 94.7%

Structure (SMILES): Cn1cc(C2=Nc3cc(NC(=O)C(N)C4CCCCC4)cc4c3C2=CNNC4=O)cn1 (stereo not drawn)
- normalised viability ([1]; 100 nM): 106%
- normalised viability ([2]; 100 nM): 100%
- normalised viability ([3]; 100 nM): 87.3%
- normalised viability ([4]; 100 nM): 75.9%
- normalised viability ([5]; 100 nM): 108%
- normalised viability ([6]; 10 nM): 85.9%
- normalised viability ([7]; 10 nM): 98.2%
- normalised viability ([8]; 100 nM): 101%
- normalised viability ([9]; 100 nM): 83.3%
- normalised viability ([10]; 100 nM): 93.4%
- normalised viability ([11]; 10 nM): 98.4%
- normalised viability ([12]; 10 nM): 81.8%
- normalised viability ([13]; 100 nM): 89.9%
- normalised viability ([14]; 100 nM): 69.2%
- normalised viability ([15]; 100 nM): 38.4%
- normalised viability ([16]; 10 nM): 108%
- normalised viability ([17]; 100 nM): 90.7%
- normalised viability ([18]; 10 nM): 93.1%

Structure (SMILES): Nc1nc2[nH]cnc2c(=S)[nH]1 [Thioguanine]
- normalised viability ([1]; 100 nM): 107%
- normalised viability ([2]; 100 nM): 94.6%
- normalised viability ([3]; 100 nM): 89.9%
- normalised viability ([4]; 100 nM): 103%
- normalised viability ([5]; 100 nM): 109%
- normalised viability ([6]; 10 nM): 109%
- normalised viability ([7]; 10 nM): 108%
- normalised viability ([8]; 100 nM): 82.7%
- normalised viability ([9]; 100 nM): 89.3%
- normalised viability ([10]; 100 nM): 103%
- normalised viability ([11]; 10 nM): 103%
- normalised viability ([12]; 10 nM): 102%
- normalised viability ([13]; 100 nM): 96.8%
- normalised viability ([14]; 100 nM): 95.2%
- normalised viability ([15]; 100 nM): 87.5%
- normalised viability ([16]; 10 nM): 105%
- normalised viability ([17]; 100 nM): 98.5%
- normalised viability ([18]; 10 nM): 109%
